Structures can show the parent of a compound that is named as a salt.
Columns and labels:
Type in all cases: in vivo
[1] = Hexobarbital narcosis potentiating effect; conditions: for Hexobarbital narcosis potentiating effect T.I. (therapeutical index): narcosis potentiation; for ED50: positive = narcosis time lengthened to at least 2.5-fold of control
Protocol: In the hexobarbital narcosis potentiating test those animals are regarded as showing positive reaction in which the average narcosis time is lengthened to at least 2.5-fold of that of the control group.
The ED50 values are calculated from the data thus transformed.

[2] = Motility inhibiting effect; conditions: for Motility inhibiting effect T.I. (therapeutical index): motility inhibition; for ED50: read-out: Motility inhibiting effect ED50
Description: (§1) The following test methods are used: Motility inhibition test: J. Borsy, E. Csanyi, J. Lazar: J. Arch. Int. Pharmacodyn. 124, 1-2 (1960); Inhibition of tetracor spasms: R. Benzinger, D. Hane: Arch. Int Pharmacodyn. 167, 245-249 (1967).

[3] = Spasmolytic effect (inhibition of tetracor spasms); conditions: for ED50: inhibition of tetracor spasms
Description: as §1

[4] = Yohimbine potentiating effect
Protocol: The yohimbine potentiating effect is determined by the method of R. M. Quinton: Brit. […] Scand.

Compound: CN(C)CCCn1c2c(c(=O)n3nc(N4CCOCC4)nc13)CCN(Cc1ccccc1)C2 [Example 19, 8-Benzyl-10-(3-dimethylaminopropyl)-2-morpholino-6,7,8,9-tetrahydro-pyrido[3,4-d]-1,2,4-triazolo[1,5-a]pyrimidine-5(10H)-one]
- Hexobarbital narcosis potentiating effect T.I. (therapeutical index) [1]: 6.0
- ED50 [1]: 200 mg/kg
- Motility inhibiting effect T.I. (therapeutical index) [2]: 6.0
- ED50 ([2]; motility inhibition test): 200 mg/kg

Compound: O=c1c2c(n(CCN3CCCCC3)c3nc(N4CCOCC4)nn13)CCN(Cc1ccccc1)C2 [Example 18, 7-Benzyl-2-morpholino-10-(2-piperidinoethyl)-6,7,8,9-tetrahydro-pyrido[4,3-d]-1,2,4-triazolo[1,5-a]pyrimidine-5(10H)-one]
- Spasmolytic effect T.I. (therapeutical index) [3]: 6.6
- ED50 [3]: 150 mg/kg

Compound: O=c1c2c(n(CCN3CCCC3)c3nc(N4CCOCC4)nn13)CN(Cc1ccccc1)CC2 [Example 20, 8-Benzyl-2-morpholino-10-(2-pyrrolidinoethyl)-6,7,8,9-tetrahydro-pyrido[3,4-d]-1,2,4-triazolo[1,5-a]pyrimidine-5(10H)-one]
- Spasmolytic effect T.I. (therapeutical index) [3]: 6.5
- ED50 [3]: 155 mg/kg

Compound: CN1C(=O)OC(C)(C)C1=O [Trimetadion, reference compound]
- ED50 [3]: 490 mg/kg

Compound: CCCC(C)(COC(N)=O)COC(N)=O [Meprobamat, reference compound]
- Hexobarbital narcosis potentiating effect T.I. (therapeutical index) [1]: 4.1
- ED50 [1]: 260 mg/kg
- Motility inhibiting effect T.I. (therapeutical index) [2]: 4.1
- ED50 [2]: 270 mg/kg

Compound: O=c1c2c(n(CCN3CCCCC3)c3nc(N4CCOCC4)nn13)CN(Cc1ccccc1)CC2 [Example 19c, 8-Benzyl-2-morpholino-10-(2-piperidino-ethyl)-6,7,8,9-tetrahydro-pyrido[3,4-d]-1,2,4-triazolo[1,5-a]pyrimidine-5(10H)-one]
- Yohimbin potentiating effect T.I. (therapeutical index) ([4]; T.I.=therapeutical index, yohimbine potentiation): 47
- Spasmolytic effect T.I. (therapeutical index) [3]: 6.7
- ED50 [3]: 150 mg/kg

Compound: CN(C)CCC=C1c2ccccc2CCc2ccccc21 [Amitriptilin, reference compound]
- ED50 ([4]; method of Quinton, read-out: Yohimbin potentiating effect ED50): 12.5 mg/kg

Compound: CSc1nc2n(CCCN3CCOCC3)c3c(c(=O)n2n1)CN(Cc1ccccc1)CC3 [Example 19g, 7-Benzyl-2-methylthio-10-(3-morpholino-propyl)-6,7,8,9-tetrahydro-pyrido[4,3-d]-1,2,4-triazolo[1,5-a]pyrimidine-5(10H)-one fumarate]
- Spasmolytic effect T.I. (therapeutical index) [3]: 8.5
- ED50 [3]: 100 mg/kg
